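The compound was tested at five concentrations on cells cultured in 96-well plates, with a 48-hour exposure period. Abbreviation: GI50, concentration required for 50% inhibition of growth.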 Activity calls are given as the source filed them. No stated cut-off is given here; in the data, active = GI50 up to about 1.1 µM and inactive = higher.
Assays:
Assay in all cases: NCI anticancer screen, dose series, 48 h
786-0 = test system: 786-0
A498 = test system: A498
ACHN = test system: ACHN
CCRF-CEM = test system: CCRF-CEM
COLO 205 = test system: COLO 205
DLD-1 = test system: DLD-1
DMS-114 = test system: DMS-114
DMS-273 = test system: DMS-273
EKVX = test system: EKVX
HCC 2998 = test system: HCC 2998
HCT-15 = test system: HCT-15
HL-60 = test system: HL-60
HOP-18 = test system: HOP-18
HOP-62 = test system: HOP-62
HT-29 = test system: HT-29
K562 = test system: K562
KM-20L2 = test system: KM-20L2
LOX IMVI = test system: LOX IMVI
LXFL 529 = test system: LXFL 529
M14 = test system: M14
M19-MEL = test system: M19-MEL
MOLT-4 = test system: MOLT-4
NCI-H226 = test system: NCI-H226
NCI-H23 = test system: NCI-H23
NCI-H460 = test system: NCI-H460
NCI-H522 = test system: NCI-H522
OVCAR-3 = test system: OVCAR-3
OVCAR-4 = test system: OVCAR-4
OVCAR-8 = test system: OVCAR-8
RPMI-8226 = test system: RPMI-8226
RXF 393 = test system: RXF 393
SF-268 = test system: SF-268
SF-295 = test system: SF-295
SF-539 = test system: SF-539
SK-MEL-28 = test system: SK-MEL-28
SK-OV-3 = test system: SK-OV-3
SN12C = test system: SN12C
SNB-19 = test system: SNB-19
SNB-75 = test system: SNB-75
TK-10 = test system: TK-10
U-251 = test system: U-251
UACC-257 = test system: UACC-257
UACC-62 = test system: UACC-62
UO-31 = test system: UO-31
HCT-116 = test system: HCT-116
Malme-3M = test system: Malme-3M
SNB-78 = test system: SNB-78
SR = test system: SR
XF498 = test system: XF498
A549 = test system: A549
CAKI-1 = test system: CAKI-1
HOP-92 = test system: HOP-92
IGROV-1 = test system: IGROV-1
KM12 = test system: KM12
OVCAR-5 = test system: OVCAR-5
SK-MEL-2 = test system: SK-MEL-2
SK-MEL-5 = test system: SK-MEL-5
SW-620 = test system: SW-620

Measured: GI50

NC1C[C@H](n2cc(/C=C/Br)c(=O)[nH]c2=O)C[C@@H]1CO (some centres not stated)
inactive: 786-0 > 100 µM | A498 > 100 µM | ACHN > 100 µM | CCRF-CEM > 100 µM | COLO 205 > 100 µM | DLD-1 > 100 µM | DMS-114 > 100 µM | DMS-273 > 100 µM | EKVX > 100 µM | HCC 2998 > 100 µM | HL-60 > 100 µM | HOP-18 > 100 µM | HOP-62 > 100 µM | HT-29 > 100 µM | K562 > 100 µM | KM-20L2 > 100 µM | LOX IMVI > 100 µM | LXFL 529 50.4 µM | M14 > 100 µM | M19-MEL > 100 µM | MOLT-4 > 100 µM | NCI-H226 > 100 µM | NCI-H23 > 100 µM | NCI-H460 > 100 µM | NCI-H522 > 100 µM | OVCAR-3 > 100 µM | OVCAR-4 > 100 µM | OVCAR-8 > 100 µM | RPMI-8226 > 100 µM | RXF 393 > 100 µM | SF-268 > 100 µM | SF-295 > 100 µM | SF-539 > 100 µM | SK-MEL-28 > 100 µM | SK-OV-3 > 100 µM | SN12C > 100 µM | SNB-19 > 100 µM | SNB-75 > 100 µM | TK-10 > 100 µM | U-251 > 100 µM | UACC-257 > 100 µM | UACC-62 > 100 µM | UO-31 > 100 µM
> 100 µM: HCT-15

Cc1cccc(C)c1NC(=O)CCCC(=O)C1CC(=O)CCC1=O (configuration not stated)
> 100 µM: HCT-15
inactive: 786-0 > 100 µM | A498 > 100 µM | ACHN > 100 µM | DLD-1 > 100 µM | DMS-114 > 100 µM | EKVX > 100 µM | HCC 2998 > 100 µM | HCT-116 > 100 µM | HOP-62 > 100 µM | HT-29 > 100 µM | KM-20L2 > 100 µM | M19-MEL > 100 µM | MOLT-4 > 100 µM | Malme-3M > 100 µM | NCI-H226 > 100 µM | NCI-H23 > 100 µM | NCI-H522 > 100 µM | OVCAR-3 > 100 µM | OVCAR-4 > 100 µM | OVCAR-8 > 100 µM | RPMI-8226 > 100 µM | RXF 393 > 100 µM | SF-268 > 100 µM | SF-539 > 100 µM | SK-MEL-28 > 100 µM | SK-OV-3 > 100 µM | SN12C > 100 µM | SNB-19 > 100 µM | SNB-75 > 100 µM | SNB-78 > 100 µM | SR > 100 µM | U-251 > 100 µM | UACC-257 > 100 µM | UACC-62 > 100 µM | UO-31 > 100 µM | XF498 > 100 µM

CCN(CC)CCOc1ccc(C(O)(Cc2ccc(OC)cc2)c2ccccc2)cc1 (configuration not stated)
19.1 µM: HCT-15
inactive: 786-0 17.3 µM | A498 18.1 µM | A549 21.8 µM | ACHN 27.5 µM | CAKI-1 21.7 µM | CCRF-CEM 17.6 µM | COLO 205 12 µM | DLD-1 18.3 µM | DMS-114 14.9 µM | DMS-273 14.3 µM | EKVX 26.9 µM | HCC 2998 14 µM | HCT-116 13.8 µM | HL-60 7.52 µM | HOP-62 15.9 µM | HOP-92 14.7 µM | HT-29 3.83 µM | IGROV-1 32.6 µM | K562 4.39 µM | KM-20L2 3.24 µM | KM12 17.3 µM | LOX IMVI 14.3 µM | LXFL 529 17 µM | M14 14.3 µM | M19-MEL 15.4 µM | MOLT-4 14.4 µM | Malme-3M 18.5 µM | NCI-H226 26.4 µM | NCI-H23 17 µM | NCI-H460 22.2 µM | NCI-H522 20.5 µM | OVCAR-3 34.1 µM | OVCAR-4 16.1 µM | OVCAR-5 20 µM | OVCAR-8 33.6 µM | RPMI-8226 13.4 µM | RXF 393 13.1 µM | SF-268 21.5 µM | SF-295 17.7 µM | SF-539 12.4 µM | SK-MEL-28 13.9 µM | SK-MEL-2 14.9 µM | SK-MEL-5 13.2 µM | SK-OV-3 23.6 µM | SN12C 27.9 µM | SNB-19 24.6 µM | SNB-75 12.6 µM | SNB-78 24.5 µM | SR 10.7 µM | SW-620 17.2 µM | TK-10 28.7 µM | U-251 16.2 µM | UACC-257 15.7 µM | UACC-62 16.7 µM | UO-31 22 µM | XF498 14 µM

COC(=O)C1=C(C(=O)OC)C23C=CC=CC24C(C(=O)OC)=C(C(=O)OC)C4C1C3 (configuration not stated)
active: SNB-75 0.743 µM
59.8 µM: HCT-15
inactive: 786-0 > 100 µM | A549 > 100 µM | ACHN > 100 µM | CCRF-CEM 69.7 µM | COLO 205 > 100 µM | DLD-1 > 100 µM | DMS-114 88.7 µM | DMS-273 72.9 µM | EKVX > 100 µM | HCC 2998 > 100 µM | HCT-116 77.1 µM | HL-60 41.7 µM | HOP-62 > 100 µM | HOP-92 > 100 µM | HT-29 > 100 µM | IGROV-1 > 100 µM | K562 30.5 µM | KM-20L2 > 100 µM | KM12 > 100 µM | LXFL 529 74.1 µM | M14 > 100 µM | M19-MEL > 100 µM | MOLT-4 > 100 µM | Malme-3M > 100 µM | NCI-H23 > 100 µM | NCI-H460 > 100 µM | NCI-H522 32.7 µM | OVCAR-3 > 100 µM | OVCAR-4 > 100 µM | OVCAR-5 > 100 µM | OVCAR-8 > 100 µM | RPMI-8226 51.2 µM | RXF 393 > 100 µM | SF-268 > 100 µM | SF-295 > 100 µM | SF-539 > 100 µM | SK-MEL-28 > 100 µM | SK-MEL-2 > 100 µM | SK-MEL-5 > 100 µM | SN12C > 100 µM | SNB-19 > 100 µM | SNB-78 67.1 µM | SW-620 > 100 µM | TK-10 > 100 µM | U-251 > 100 µM | UACC-257 50.2 µM | UACC-62 56.6 µM | UO-31 > 100 µM | XF498 > 100 µM

Cc1nc2ccccc2c(=O)n1/N=C(\N=N\c1ccc(Cl)cc1)c1cccc(-c2ccco2)c1
inactive: 786-0 39.6 µM | A498 61.8 µM | A549 40.6 µM | ACHN 30.5 µM | CAKI-1 25.5 µM | CCRF-CEM 24.6 µM | COLO 205 31.8 µM | DLD-1 27.9 µM | DMS-273 27.9 µM | EKVX 51.8 µM | HCT-116 19.1 µM | HL-60 25.1 µM | HOP-18 21.1 µM | HOP-62 22.5 µM | HOP-92 16.1 µM | HT-29 34.3 µM | IGROV-1 31.3 µM | K562 22.3 µM | KM-20L2 27.3 µM | LOX IMVI 28.9 µM | LXFL 529 25.3 µM | M14 34.1 µM | M19-MEL 34.1 µM | MOLT-4 22.4 µM | NCI-H23 21.6 µM | NCI-H460 37.7 µM | NCI-H522 17.7 µM | OVCAR-8 33.1 µM | RPMI-8226 19.1 µM | RXF 393 20.3 µM | SF-268 19.7 µM | SF-295 48.5 µM | SF-539 28.6 µM | SK-MEL-28 16.8 µM | SK-MEL-5 18.9 µM | SK-OV-3 30.3 µM | SN12C 29.2 µM | SW-620 42.5 µM | TK-10 51.5 µM | U-251 27.5 µM | UACC-62 22.4 µM | UO-31 14.1 µM
30.2 µM: HCT-15

— ChEMBL document CHEMBL1201862, “PubChem BioAssay data set” (2004)
